Experiments:
1W1K-specific Tfh cells = assay: 1W1K-specific CD4+ T cell and Tfh cell response in draining lymph nodes after immunisation (pMHCII tetramer flow cytometry); assay type: in vivo, C57Bl/6 mice; settings: for 1W1K-specific Tfh cells in the dLN / amount of 1W1K-specific CD4+ T cells / total number of CD4+ T cells in the dLN: TLR agonist added to IFA; for 1W1K-specific Tfh cells in the dLN: 40 μg 1W1K s.c., 9 days, FIG. 1A; for amount of 1W1K-specific CD4+ T cells / total number of CD4+ T cells in the dLN: 1W1K s.c., peak of primary response, versus IFA only
Procedure: (§1) Mice were either i.p. injected or immunized s.c. at the base of tail with 40 μg of peptide 1W1K, 100 μg of OVA, 200 μg of Ea-FITC in the indicated adjuvant with or without soluble TLR agonist, in a final volume of 200 µL. To target moDC, mice were immunised s.c. with 1.2×1010 beads (which correspond to 40 μg Ea52-68, 1W1K or 100 μg OVA) in indicated adjuvant with or without soluble TLR agonist. At indicated times post-immunisation, spleen or dLN (inguinal and periaortic) were collected and cells were stained for flow cytometry analysis.
To block IL-6 signalling, i.p. injections of 100 μg D7715A7 mAb (anti-IL-6R[…], eBioscience) or Rat IgG2b isotype control were performed at day −1 and +4 post-immunisation. To deplete mice of monocytes, i.v. injections of 250 μL of clodronate liposomes or control PBS liposomes (clodronateliposome.com) were performed from day −1 every second day.
For population analysis, dLN were harvested from mice and single cell suspensions were prepared in PBS with 2% FCS, 5 mM EDTA. For DC analysis, lymphoid organs were dissociated using 125 μg/mL LiberaseTL (Roche) and 40 μg/mL DNAase I (Sigma-Aldrich) at 37° C. for 20 min. 1×10^8 cells/ml were labelled at 4° C. for 45 min with mAbs: Reagents from BD Pharmingen [AlexaFluor488-K112-91 (anti-Bcl-6); PE-M1/70 (anti-CD11b), PE-281-2 (anti-CD138); Cy5PE-M1/70 (anti-CD11b); APC-2G8 (anti-CXCR5); V500-500A2 (anti-CD3); Pacific Blue-53-6.7 (anti-CD8α); Biotin-Jo2 (anti-CD95); Biotin-2G8 (anti-CXCR5)], Reagents from eBioscience [FITC-eBio1D3 (anti-CD19), FITC-RA3-6B2 (anti-B220), FITC-RM4-5 (anti-CD4); PE-MAR-1 (anti-FceR1), PE-205yekta (anti-CD205), PE-2E7 (anti-CD 103), PE-MP5-20F3 (anti-IL-6); Cy5PE-RM4-5 (anti-CD4); Cy7PE-N418 (anti-CD11c), Cy7PE-53-6.7 (anti-CD8α); Cy5.5PE-anti-CD19, Cy5.5PE-HK1.4 (anti-Ly-6c); APC-N418; AlexaFluor647 anti-GL-7; AlexaFluor700-MEL-14 (anti-CD62L), AlexaFluor700-eBio1D3, AlexaFluor700-IM7 (anti-CD44); APCeFluor780-IM7, APCeFluor780-BM8 (anti-F4/80), APCeFluor780-RA3-6B2; eFluor450-11-26c (anti-IgD), eFluor450-MEL-14; biotin-Y-Ae], reagent from R&D PE-475301(anti-CCR2). Before data collection […] propidium iodide (PI) was added to samples. 1W1K-IAb tetramer was obtained from NIH Tetramer core facility. For IL-6 intracellular staining cell suspensions were incubated for 4 hr at 37° C. in the presence of 3 μg/mL Golgi Plug (BD Bioscience) and 4 μM Monensin, fixed and permabilised using BD Fixation/Permeabilisation kit. Before permeabilisation cells were stained with Fixable Viability Dye eFluor450 or eFluor660 (eBioscience). Data were collected on a BD LSRII™ (BD Biosciences) and analysed using FlowJo software (Tree Star).
6-8-wk-old C57Bl/6 mice were irradiated (0.85 Gy) the day before i.v. injection of 1×10^7 T cell-depleted BM cells that consisted of a mix of 70% from CD11c-DTR or JHT supplemented with 30% from TLR9KO, Myd88KO, TRIFKO, IL-6K0 or wt CD45.1 C57Bl/6 mice. After 8 wk, the chimeras with CD11c-DTR BM were i.p. treated every second day with 4 ng/g body weight DTx (Sigma-Aldrich) and 1 day before immunisation with 20 ng/mouse s.c. Treated animals were then s.c. immunised either with 1W1K or OVA as described above.
The combination of adjuvant to a peptide favours robust T-dependent B cell immunity. To test whether addition of TLR agonists to other vaccine adjuvant could have a synergistic effect on the induced immune response, we examined the I-Ab restricted murine CD4+ T cell response to a peptide variant ([…], called 1W1K peptide hereafter, SEQ ID NO:1) of the I-E alpha chain immunodominant peptide 52-68 (Ea52-68) in C57Bl/6 mice. We followed the 1W1K-specific CD4+ T cells with the corresponding pMHCII tetramer in the draining lymph nodes (dLN) after sub-cutaneous (s.c.) immunisation in Incomplete Freund's adjuvant (IFA). At the peak of the effector CD4+ T cell response, we detected the CD44+ and pMHCII tetramer+1W1K-specific CD4+ T cells in the dLN (data not shown). […]

OVA-specific IgG = OVA-specific IgG in serum by ELISA after immunisation; assay type: in vivo, C57Bl/6 mice
IL-6 = IL-6 in serum of immunised animals (IL-6 ELISA kit); assay type: in vivo, mice; settings: 4 hours after i.p. injection; 1W1K in Alum
OVA-specific B cells = assay: OVA-specific B cell response in dLN after immunisation (flow cytometry); assay type: in vivo, C57Bl/6 mice; settings: TLR agonist added to IFA; 100 μg OVA s.c.; 14 days; FIG. 2A
Procedure: as §1
For population analysis, dLN were harvested from mice and single cell suspensions were prepared in PBS with 2% FCS, 5 mM EDTA. For DC analysis, lymphoid organs were dissociated using 125 μg/mL LiberaseTL (Roche) and 40 μg/mL DNAase I (Sigma-Aldrich) at 37° C. for 20 min. […] Data were collected on a BD LSRII™ (BD Biosciences) and analysed using FlowJo software (Tree Star).
We hypothesized that an increase in the CD4+ T cell help and specifically an increase of the Tfh cells, the critical regulators of B cell responses, could result in a greater B cell response to the Ag after addition of TLR agonist to another adjuvant. The murine B cell response to ovalbumin (OVA) in wt animals is a valuable immunisation model that can be monitored via the polyclonal Ig repertoires. OVA-specific B cells can be detected by flow cytometry as CD3-IgD− cells that bind specifically to A1exa488-conjugated OVA (OVA+) (data not shown). […] Using this strategy, we determined if addition of TLR agonist to IFA impacts OVA-specific B cell responses in vivo. […]

[1] = BM chimeras (JHT + MyD88KO) lacking MyD88 signalling in B cells, added to IFA

poly(I:C)
1W1K-specific Tfh cells in the dLN (1W1K-specific Tfh cells): had no enhancing effect | amount of 1W1K-specific CD4+ T cells (1W1K-specific Tfh cells): did not statistically change | total number of CD4+ T cells in the dLN (1W1K-specific Tfh cells): did not statistically change

lipopolysaccharide [LPS]
enhancing effect on OVA-specific IgG (OVA-specific IgG; [1]): also observed | circulating OVA-specific IgG (OVA-specific IgG; IFA supplemented with TLR agonist, 14 days, FIG. 2B): significant increase | enhancing effect on 1W1K-specific Tfh cells (1W1K-specific Tfh cells; [1]): also observed | 1W1K-specific Tfh cells in the dLN (1W1K-specific Tfh cells): induced an increase | amount of 1W1K-specific CD4+ T cells (1W1K-specific Tfh cells): did not statistically change | total number of CD4+ T cells in the dLN (1W1K-specific Tfh cells): did not statistically change | 1W1K-specific Tfh cell differentiation (1W1K-specific Tfh cells; added to Alum, i.p., JHT mice (no functional B cells), 5 days): enhanced | increase of 1W1K-specific Tfh response (1W1K-specific Tfh cells; chimeras (CD11c-DTR + MyD88KO), DTx: MyD88 signalling in CD11c+ cells impaired, FIG. 3B): not observed | IL-6 in the serum, sensitised JHT animals compared to sensitised wt mice (IL-6): significant decrease | OVA-specific GC-B cells (OVA-specific B cells): increased | OVA-specific PC (OVA-specific B cells): increased | overall OVA-specific B cells (OVA-specific B cells): increased
